Measured values reported in patent US9611267B2, “Substituted tricyclic compounds as FGFR inhibitors” (Incyte Corporation, priority 2012, dated 2017).

Assays:
Type in all cases: biochemical
FGFR2 = FGFR2 (Homo sapiens (Human), UniProt P21802); test: FGFR enzymatic assay (FRET peptide phosphorylation), FGFR2; conditions: FGFR2 enzyme 0.01 nM, ATP 100 μM
Protocol: (§1) The inhibitor potency of the exemplified compounds was measured in an enzyme assay that measures peptide phosphorylation using FRET measurements to detect product formation. Inhibitors were serially diluted in DMSO and a volume of 0.5 μL was transferred to the wells of a 384-well plate. For FGFR3, a 10 μL volume of FGFR3 enzyme (Millipore) diluted in assay buffer (50 mM HEPES, 10 mM MgCl2, 1 mM EGTA, 0.01% Tween-20, 5 mM DTT, pH 7.5) was added to the plate and pre-incubated for 5-10 minutes. Appropriate controls (enzyme blank and enzyme with no inhibitor) were included on the plate. […] The plate was incubated at 25° C. for 1 hr. […] The plate was allowed to equilibrate for ˜1 hr before scanning the wells on a PheraStar plate reader (BMG Labtech).
(§2) The enzymes were purchased from Millipore or Invitrogen.
(§3) GraphPad prism3 was used to analyze the data. The IC50 values were derived by fitting the data to the equation for a sigmoidal dose-response with a variable slope. Y=Bottom+(Top−Bottom)/(1+10^((LogIC50−X)*HillSlope)) where X is the logarithm of concentration and Y is the response.

FGFR3 = FGFR3 (Homo sapiens (Human), UniProt P22607); test: FGFR enzymatic assay (FRET peptide phosphorylation), FGFR3; conditions: FGFR3 enzyme (Millipore), ATP 140 μM
Chain of FGFR3 (P22607 23-806): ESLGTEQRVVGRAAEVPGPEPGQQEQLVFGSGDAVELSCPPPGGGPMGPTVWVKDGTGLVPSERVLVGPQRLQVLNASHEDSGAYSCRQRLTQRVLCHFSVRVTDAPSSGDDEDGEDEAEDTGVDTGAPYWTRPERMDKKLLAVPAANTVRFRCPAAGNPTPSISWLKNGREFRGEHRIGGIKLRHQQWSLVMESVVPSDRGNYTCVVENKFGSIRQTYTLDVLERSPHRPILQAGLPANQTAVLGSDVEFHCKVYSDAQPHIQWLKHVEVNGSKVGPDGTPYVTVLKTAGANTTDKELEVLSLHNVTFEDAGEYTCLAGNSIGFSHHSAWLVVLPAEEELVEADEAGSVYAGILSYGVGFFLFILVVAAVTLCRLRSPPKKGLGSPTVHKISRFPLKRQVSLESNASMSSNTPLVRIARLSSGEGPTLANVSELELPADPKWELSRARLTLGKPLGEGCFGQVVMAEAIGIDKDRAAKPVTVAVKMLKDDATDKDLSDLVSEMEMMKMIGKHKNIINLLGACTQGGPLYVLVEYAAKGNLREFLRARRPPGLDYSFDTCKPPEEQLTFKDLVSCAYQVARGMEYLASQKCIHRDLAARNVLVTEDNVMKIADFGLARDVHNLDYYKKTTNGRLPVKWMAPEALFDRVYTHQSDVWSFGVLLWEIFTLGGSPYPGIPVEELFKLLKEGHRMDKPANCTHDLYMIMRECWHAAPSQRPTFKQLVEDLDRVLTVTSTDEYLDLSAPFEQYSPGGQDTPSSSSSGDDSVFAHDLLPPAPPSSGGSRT
Protocol: as §1, §3

FGFR1 = FGFR1 (Homo sapiens (Human), UniProt P11362); test: FGFR enzymatic assay (FRET peptide phosphorylation), FGFR1; conditions: FGFR1 enzyme 0.02 nM, ATP 210 μM
Chain of FGFR1 (P11362 22-822): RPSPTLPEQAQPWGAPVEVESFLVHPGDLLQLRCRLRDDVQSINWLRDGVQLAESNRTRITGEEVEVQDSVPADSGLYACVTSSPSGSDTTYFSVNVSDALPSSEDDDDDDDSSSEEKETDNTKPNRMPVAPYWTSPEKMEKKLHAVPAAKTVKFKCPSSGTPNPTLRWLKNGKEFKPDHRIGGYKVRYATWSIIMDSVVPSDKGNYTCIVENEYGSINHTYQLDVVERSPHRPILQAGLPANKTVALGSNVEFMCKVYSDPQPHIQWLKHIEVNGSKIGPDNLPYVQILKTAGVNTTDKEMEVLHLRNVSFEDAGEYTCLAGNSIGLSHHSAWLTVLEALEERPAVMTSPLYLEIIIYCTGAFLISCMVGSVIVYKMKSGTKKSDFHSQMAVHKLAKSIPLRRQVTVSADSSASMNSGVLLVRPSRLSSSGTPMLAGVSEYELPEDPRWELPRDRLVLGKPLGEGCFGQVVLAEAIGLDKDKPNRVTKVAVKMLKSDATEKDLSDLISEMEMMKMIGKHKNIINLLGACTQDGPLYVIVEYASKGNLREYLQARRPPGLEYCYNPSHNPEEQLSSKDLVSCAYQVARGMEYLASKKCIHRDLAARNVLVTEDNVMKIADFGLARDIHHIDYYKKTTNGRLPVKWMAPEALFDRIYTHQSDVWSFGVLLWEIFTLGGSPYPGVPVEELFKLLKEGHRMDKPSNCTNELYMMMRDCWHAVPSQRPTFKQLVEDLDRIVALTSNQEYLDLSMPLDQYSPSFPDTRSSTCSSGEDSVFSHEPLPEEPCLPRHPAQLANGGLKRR
Protocol: as §1, §2, §3

Measured: IC50

Chain of FGFR2 (P21802 22-821): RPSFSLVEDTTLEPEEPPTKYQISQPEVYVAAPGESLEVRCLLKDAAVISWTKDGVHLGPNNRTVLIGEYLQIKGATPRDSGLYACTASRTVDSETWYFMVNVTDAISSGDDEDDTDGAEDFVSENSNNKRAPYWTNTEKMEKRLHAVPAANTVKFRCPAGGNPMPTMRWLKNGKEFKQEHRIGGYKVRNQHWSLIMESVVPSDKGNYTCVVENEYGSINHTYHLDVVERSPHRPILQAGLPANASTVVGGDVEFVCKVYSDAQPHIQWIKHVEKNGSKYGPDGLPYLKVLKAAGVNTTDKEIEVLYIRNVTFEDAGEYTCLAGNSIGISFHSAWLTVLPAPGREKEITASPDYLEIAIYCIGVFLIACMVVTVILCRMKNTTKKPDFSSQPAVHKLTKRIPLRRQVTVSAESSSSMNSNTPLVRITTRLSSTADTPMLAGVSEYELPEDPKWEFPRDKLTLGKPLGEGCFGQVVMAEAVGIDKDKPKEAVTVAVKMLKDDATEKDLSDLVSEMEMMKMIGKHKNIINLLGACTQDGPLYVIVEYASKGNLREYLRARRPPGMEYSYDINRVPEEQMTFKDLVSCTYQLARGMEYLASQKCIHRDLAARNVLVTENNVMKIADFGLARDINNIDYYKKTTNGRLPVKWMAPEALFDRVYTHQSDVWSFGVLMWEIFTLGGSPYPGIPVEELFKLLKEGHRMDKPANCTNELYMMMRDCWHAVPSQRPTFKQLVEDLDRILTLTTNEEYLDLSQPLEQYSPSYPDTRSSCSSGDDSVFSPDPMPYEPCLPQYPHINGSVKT

COc1cc(OC)c(F)c(N2Cc3cnc4[nH]c(C(=O)N(C)C)cc4c3N(C)C2=O)c1 [Example 34, 3-(2-Fluoro-3,5-dimethoxyphenyl)-N,N,1-trimethyl-2-oxo-2,3,4,7-tetrahydro-1H-pyrrolo[3′,2′:5,6]pyrido[4,3-d]pyrimidine-8-carboxamide]
< 100 nM: all assays above

COc1cc(OC)c(F)c(N2Cc3cnc4[nH]c(C(=O)N(C)C)cc4c3N(C)C2=O)c1F [Example 35, 3-(2,6-Difluoro-3,5-dimethoxyphenyl)-N,N,1-trimethyl-2-oxo-2,3,4,7-tetrahydro-1H-pyrrolo[3′,2′:5,6]pyrido[4,3-d]pyrimidine-8-carboxamide]
< 100 nM: all assays above

COc1cc(OC)c(F)c(N2Cc3cnc4c(c3N(C)C2=O)CC(=O)N4)c1F [Example 37, 3-(2,6-Difluoro-3,5-dimethoxyphenyl)-1-methyl-3,4,7,9-tetrahydro-1H-pyrrolo[3′,2′:5,6]pyrido[4,3-d]pyrimidine-2,8-dione]
< 100 nM: all assays above

COc1cc(OC)c(F)c(N2Cc3cnc4ccsc4c3N(C)C2=O)c1F [Example 38, 3-(2,6-Difluoro-3,5-dimethoxyphenyl)-1-methyl-3,4-dihydrothieno[2′,3′:5,6]pyrido[4,3-d]pyrimidin-2(1H)-one]
< 100 nM: all assays above

COc1cc(OC)c(F)c(N2Cc3cnc4[nH]c(C5CCOCC5)cc4c3N(C)C2=O)c1F [Example 39, 3-(2,6-Difluoro-3,5-dimethoxyphenyl)-1-methyl-8-(tetrahydro-2H-pyran-4-yl)-1,3,4,7-tetrahydro-2H-pyrrolo[3′,2′:5,6]pyrido[4,3-d]pyrimidin-2-one]
< 100 nM: all assays above

COc1cc(OC)c(F)c(N2Cc3cnc4[nH]c(C(=O)N5CCN(C)CC5)cc4c3N(C)C2=O)c1F [Example 40, 3-(2,6-Difluoro-3,5-dimethoxyphenyl)-1-methyl-8-[(4-methylpiperazin-1-yl)carbonyl]-1,3,4,7-tetrahydro-2H-pyrrolo[3′,2′:5,6]pyrido[4,3-d]pyrimidin-2-one]
< 100 nM: all assays above

COc1cc(OC)c(F)c(N2Cc3cnc4[nH]c(C(=O)N5CCOCC5)cc4c3N(C)C2=O)c1F [Example 41, 3-(2,6-Difluoro-3,5-dimethoxyphenyl)-1-methyl-8-(morpholin-4-ylcarbonyl)-1,3,4,7-tetrahydro-2H-pyrrolo[3′,2′:5,6]pyrido[4,3-d]pyrimidin-2-one]
< 100 nM: all assays above

COc1cc(OC)c(F)c(N2Cc3cnc4[nH]c(C(=O)N5CCC(F)(F)CC5)cc4c3N(C)C2=O)c1F [Example 42, 3-(2,6-Difluoro-3,5-dimethoxyphenyl)-8-[(4,4-difluoropiperidin-1-yl)carbonyl]-1-methyl-1,3,4,7-tetrahydro-2H-pyrrolo[3′,2′:5,6]pyrido[4,3-d]pyrimidin-2-one]
< 100 nM: all assays above

COc1cc(OC)c(F)c(N2Cc3cnc4[nH]cc(-c5cnn(C)c5)c4c3N(C)C2=O)c1F [Example 43, 3-(2,6-Difluoro-3,5-dimethoxyphenyl)-1-methyl-9-(1-methyl-1H-pyrazol-4-yl)-1,3,4,7-tetrahydro-2H-pyrrolo[3′,2′:5,6]pyrido[4,3-d]pyrimidin-2-one]
< 100 nM: all assays above

COc1cc(OC)c(F)c(N2Cc3cnc4[nH]ccc4c3N(CCO)C2=O)c1F [Example 44, 3-(2,6-Difluoro-3,5-dimethoxyphenyl)-1-(2-hydroxyethyl)-1,3,4,7-tetrahydro-2H-pyrrolo[3′,2′:5,6]pyrido[4,3-d]pyrimidin-2-one]
< 100 nM: all assays above

COc1cc(OC)c(F)c(N2Cc3cnc4[nH]ccc4c3N(C3CC3)C2=O)c1F [Example 45, 1-Cyclopropyl-3-(2,6-difluoro-3,5-dimethoxyphenyl)-1,3,4,7-tetrahydro-2H-pyrrolo[3′,2′:5,6]pyrido[4,3-d]pyrimidin-2-one]
< 100 nM: all assays above

COc1cc(OC)c(F)c(N2Cc3cnc4[nH]ccc4c3N(C3CCOCC3)C2=O)c1F [Example 46, 3-(2,6-Difluoro-3,5-dimethoxyphenyl)-1-(tetrahydro-2H-pyran-4-yl)-1,3,4,7-tetrahydro-2H-pyrrolo[3′,2′:5,6]pyrido[4,3-d]pyrimidin-2-one]
< 100 nM: all assays above

COc1cc(OC)c(F)c(N2Cc3cnc4[nH]ccc4c3N(c3ccccc3)C2=O)c1F [Example 47, 3-(2,6-difluoro-3,5-dimethoxyphenyl)-1-phenyl-1,3,4,7-tetrahydro-2H-pyrrolo[3′,2′:5,6]pyrido[4,3-d]pyrimidin-2-one]
< 100 nM: all assays above

COc1cc(OC)c(F)c(N2Cc3cnc4c(c3N(C3CC3)C2=O)CC(=O)N4)c1F [Example 48, 1-Cyclopropyl-3-(2,6-difluoro-3,5-dimethoxyphenyl)-3,4,7,9-tetrahydro-1H-pyrrolo[3′,2′:5,6]pyrido[4,3-d]pyrimidine-2,8-dione]
< 100 nM: all assays above

CCN1C(=O)N(c2c(F)c(OC)cc(OC)c2F)Cc2cnc3c(c21)CC(=O)N3 [Example 49, 3-(2,6-Difluoro-3,5-dimethoxyphenyl)-1-ethyl-3,4,7,9-tetrahydro-1H-pyrrolo[3′,2′:5,6]pyrido[4,3-d]pyrimidine-2,8-dione]
< 100 nM: all assays above

COc1cc(OC)c(F)c(N2Cc3cnc4c(c3N(CC3CC3)C2=O)CC(=O)N4)c1F [Example 50, 1-(Cyclopropylmethyl)-3-(2,6-difluoro-3,5-dimethoxyphenyl)-3,4,7,9-tetrahydro-1H-pyrrolo[3′,2′:5,6]pyrido[4,3-d]pyrimidine-2,8-dione]
< 100 nM: all assays above

COc1cc(OC)c(F)c(N2Cc3cnc4[nH]ncc4c3N(C)C2=O)c1F [Example 51, 3-(2,6-Difluoro-3,5-dimethoxyphenyl)-1-methyl-1,3,4,7-tetrahydro-2H-pyrazolo[4′,3′:5,6]pyrido[4,3-d]pyrimidin-2-one]
< 100 nM: all assays above

COc1cc(OC)c(F)c(N2Cc3cnc4[nH]nc(C)c4c3N(C)C2=O)c1F [Example 52, 3-(2,6-Difluoro-3,5-dimethoxyphenyl)-1,9-dimethyl-1,3,4,7-tetrahydro-2H-pyrazolo[4′,3′:5,6]pyrido[4,3-d]pyrimidin-2-one]
< 100 nM: all assays above

COc1cc(OC)c(F)c(N2Cc3cnc4[nH]nc(C#N)c4c3N(C)C2=O)c1F [Example 53, 3-(2,6-Difluoro-3,5-dimethoxyphenyl)-1-methyl-2-oxo-2,3,4,7-tetrahydro-1H-pyrazolo[4′,3′:5,6]pyrido[4,3-d]pyrimidine-9-carbonitrile]
< 100 nM: all assays above

COc1cc(OC)c(F)c(N2Cc3cnc4[nH]nc(CC#N)c4c3N(C)C2=O)c1F [Example 54, [3-(2,6-Difluoro-3,5-dimethoxyphenyl)-1-methyl-2-oxo-2,3,4,7-tetrahydro-1H-pyrazolo[4′,3′:5,6]pyrido[4,3-d]pyrimidin-9-yl]acetonitrile]
< 100 nM: all assays above

COc1cc(OC)c(F)c(N2Cc3cnc4[nH]nc(C5CCN(C)CC5)c4c3N(C)C2=O)c1F [Example 55, 3-(2,6-Difluoro-3,5-dimethoxyphenyl)-1-methyl-9-(1-methylpiperidin-4-yl)-1,3,4,7-tetrahydro-2H-pyrazolo[4′,3′:5,6]pyrido[4,3-d]pyrimidin-2-one]
< 100 nM: all assays above

COc1cc(OC)c(F)c(N2Cc3cnc4[nH]nc(CCO)c4c3N(C)C2=O)c1F [Example 56, 3-(2,6-Difluoro-3,5-dimethoxyphenyl)-9-(2-hydroxyethyl)-1-methyl-1,3,4,7-tetrahydro-2H-pyrazolo[4′,3′:5,6]pyrido[4,3-d]pyrimidin-2-one]
< 100 nM: all assays above
